Values of other authors as cited in US20170042798A1, “USE OF BIDENS EXTRACT TO REDUCE SIGNS OF SKIN AGING” (KIMBERLY-CLARK WORLDWIDE ,INC., priority 2014, published 2017).

Tested on: 3T3-L1 cells
Conditions: literature, Nutr. Res. 32(6): 439-447

Substance: Fucoidan
- adipogenesis: inhibit adipogenesis
